# Tested on: human NKT cells
# Assay: XCL1 secretion from human NKT cells (ELISA)
# Assay type: cell-based
# Settings: human NKT cell, FIG. 18
# Description: Briefly, to generate human NKT cells the buffy coats from human donors' peripheral blood were obtained from RESEARCH BLOOD COMPONENTS LLC and separated using differential centrifugation on a FICOLL density gradient. Magnetically Isolated CD14^neg cells were cultured with 10 U/ml rhIL-2 for 5 days. Then, Vα24^+ hNKT cells were magnetically isolated and incubated for 2 days with mitomycin C-treated human dendritic cells loaded with α-galactosylceramide (α-GalCer)+20 U/ml rhIL-2. Then, the cells were harvested and further expanded for 10 days in complete RPMI medium+20 U/ml rhIL-2, with medium replacement every 2 days. Finally, the purity of Vα24Jα18^+ CD3^+ human NKT cells was estimated using flow cytometry (˜99%) and cells were frozen in complete RPMI medium+10% dimethyl sulfoxide (DMSO) at 5×10^6 cells per vial. For assaying the effect of M. schaedleri supernatant on human NKT cells, frozen cells were thawed and cultured in complete RPMI medium+rhIL-2 at cell density of 200,000 cells per well in a 96-well plate. The cells were treated with either sterile mBHI or M. schaedleri CDM at 20% volume per volume (v/v) for 16 h and then the culture supernatant was collected. As a positive control for activation, anti-human CD3 was used to stimulate the NKT cells. XCL1 concentration was measured using ONESTEP HUMAN XCL1 ELISA (ABCAM) according to the manufacturer's instructions. […]
smiles,measurement,value
"O=C(O)c1cccnc1 [Pool 3, nicotinic acid]","NKT XCL1 production, metabolite pools",activity above that of the medium control
